Source: publication PMC11600510 (Journal of Chemical Information and Modeling, 2024)

Assays:
E. coli WP2 uvrA strain = assay: Microbial mutagenicity assay (Ames test); conditions: positive control
[1] = target: T1, Spike RBD/ACE2 (19–615) interaction (Severe acute respiratory syndrome coronavirus 2, UniProt P0DTC2); assay: cell-based; type: cell-based, SARS-CoV-2
T1 construct: S protein RBD (aa residues 319–541) of SARS-CoV-2; expressed in transfected cells; host or cells: HEK293T

SARS-CoV-2 [2] = type: cell-based
SARS-CoV-2 pseudovirus = assay: microbe, parasite or virus in culture; type: cell-based; conditions: Severe acute respiratory syndrome-related coronavirus, SH-SY5Y, read-out: IC50, inhibition of pseudovirus cell entry
SARS-CoV-2 [3] = assay: microbe, parasite or virus in culture; type: cell-based
Vero E6 cells = assay: MTT toxicity assay in Vero E6 cells; type: cell-based; conditions: 48 h
Experimental: Chemical compounds were dissolved and serially diluted in DMSO. Their cytotoxicity was assessed using an MTT assay. Briefly, HEK293T, SH-SY5Y or Vero E6 cells were cultured in 96-well plates (4 × 10^4 cells/well) at 37 °C in a 5% CO2 atmosphere. Cells were treated for 48 h with varying concentrations of the compounds (100–0.1 μM) or solvent. […] Treated cells were incubated for 4 h with […] MTT (Applichem). After incubation, the MTT-containing medium was removed and formazan crystals were dissolved in DMSO. The optical density (OD) of formazan solution at 570 and 630 nm was measured in a SPARK plate reader (Tecan).

[4] = HEK-293T, 48 h, read-out: suppression of Spike RBD/ACE2 (19–615) interaction

O=[N+]([O-])c1ccc(/C=C/C[n+]2cn(Cc3ccc4ccccc4c3)c3ccccc32)cc1.[Br-]
melting point: 189 to 191 °C

O=[N+]([O-])c1ccc(/C=C/C[n+]2cn(Cc3ccc(-c4ccccc4)cc3)c3ccccc32)cc1.[Br-]
melting point: 236 to 238 °C (dec.)

COc1ccc(Cn2c[n+](C/C=C/c3ccc([N+](=O)[O-])cc3)c3ccccc32)cc1OC.[Br-]
melting point: 146 to 148 °C (dec.)

COc1cccc2c1[n+](C/C=C/c1ccc(Cl)cc1)cn2Cc1ccc(-c2ccccc2)cc1.[Br-]
melting point: 205 to 206 °C

COc1cccc2c1[n+](C/C=C/c1ccc(Cl)cc1)cn2Cc1ccc2ccccc2c1.[Br-]
melting point: 228 to 229 °C

Nc1ccc2cc3ccccc3cc2c1 [2-aminoanthracene, reference compound]
mean revertants (E. coli WP2 uvrA strain; 10 μg/plate, +S9): >300

O=[N+]([O-])c1cccc2c1ncn2Cc1ccc2ccccc2c1 [CKP-20, 1-(Naphthalen-2-ylmethyl)-4-nitro-1H-benzo[d]imidazole]
activity on Spike RBD/ACE2 (19–615) interaction (in words) [1]: showed activity
inhibition at 50 µM [1, 4]: 51%

c1ccc2cc(Cn3cnc4ccccc43)ccc2c1 [CKP-22, 1-(Naphthalen-2-ylmethyl)-1H-benzo[d]imidazole]
reduction of SARS-CoV-2 levels (viral load) in cell culture supernatant (SARS-CoV-2 [2]): 68%
IC50 [1]: 55 µM
concentration-dependent suppression of Spike RBD/ACE2 (19–615) interaction [1]: suppressed Spike RBD/ACE2 (19–615) interaction in a concentration-dependent manner
effect on Spike RBD/ACE2 (19–615) interaction [1]: suppressed the interaction
inhibition at 50 µM [1, 4]: 81%
IC50 (SARS-CoV-2 pseudovirus): 49 ± 2.5 µM
prevention of infection from the original SARS-CoV-2 in vitro (SARS-CoV-2 [3]): strongly prevented infection
reduction of the cytopathic effect (CPE) of the virus (SARS-CoV-2 [3]): approximately 90%
melting point: 139 to 140 °C

c1ccc(-c2ccc(Cn3cnc4ccccc43)cc2)cc1 [CKP-23, 1-([1,1′-Biphenyl]-4-ylmethyl)-1H-benzo[d]imidazole]
melting point: 184 to 186 °C

COc1ccc(Cn2cnc3ccccc32)cc1OC [CKP-24, 1-(3,4-Dimethoxybenzyl)-1H-benzo[d]imidazole]
melting point: 131 to 132 °C

Oc1cccc2c1ncn2Cc1ccc2ccccc2c1 [CKP-26, 1-(Naphthalen-2-ylmethyl)-1H-benzo[d]imidazol-4-ol]
activity on Spike RBD/ACE2 (19–615) interaction (in words) [1]: none of the 4-hydroxy congeners of 28 and 29, compounds 31 (CKP-26) and 32 (CKP-30) maintained inhibitory activity

COc1cccc2c1ncn2Cc1ccc(-c2ccccc2)cc1 [CKP-27, 1-([1,1′-Biphenyl]-4-ylmethyl)-4-methoxy-1H-benzo[d]imidazole]
effect on viral load in the cell culture supernatant (in words) (SARS-CoV-2 [2]): reduced the viral load
inhibition at 25 µM [1, 4]: 72%
effect on the cytopathic effect of SARS-CoV-2 (in words) (SARS-CoV-2 [3]): consistently reduced the cytopathic effect
melting point: 150 to 151 °C

Oc1cccc2c1ncn2Cc1ccc(-c2ccccc2)cc1 [CKP-30, 1-([1,1′-Biphenyl]-4-ylmethyl)-1H-benzo[d]imidazol-4-ol]
activity on Spike RBD/ACE2 (19–615) interaction (in words) [1]: none of the 4-hydroxy congeners of 28 and 29, compounds 31 (CKP-26) and 32 (CKP-30) maintained inhibitory activity
melting point: 258 to 259 °C

Clc1ccc(/C=C/C[n+]2cn(Cc3ccc4ccccc4c3)c3ccccc32)cc1.[Br-] [CKP-32, (E)-3-(3-(4-Chlorophenyl)allyl)-1-(naphthalen-2-ylmethyl)-1H-benzo[d]imidazol-3-ium Bromide]
inhibition at 10 µM [1, 4]: 70%
toxicity against Vero E6 cells (Vero E6 cells): toxic
melting point: 166 to 167 °C

Oc1ccc(Cn2cnc3ccccc32)cc1O [CKP-35, 4-((1H-Benzo[d]imidazol-1-yl)methyl)benzene-1,2-diol]
melting point: 188 to 190 °C (dec.)

c1cnc2cc(Cn3cnc4ccccc43)ccc2c1 [CKP-36, 7-((1H-Benzo[d]imidazol-1-yl)methyl)quinoline]
melting point: 166 to 168 °C (dec.)

COc1cccc2c1[n+](C/C=C/c1ccc([N+](=O)[O-])cc1)cn2Cc1ccc(-c2ccccc2)cc1.[Br-] [CKP-40, (E)-1-([1,1′-Biphenyl]-4-ylmethyl)-4-methoxy-3-(3-(4-nitrophenyl)allyl)-1H-benzo[d]imidazol-3-ium Bromide]
activity on Spike RBD/ACE2 (19–615) interaction (in words) [1]: active
inhibition at 25 µM [1, 4]: 14%
effect on the cytopathic effect of SARS-CoV-2 (in words) (SARS-CoV-2 [3]): not protective against SARS-CoV-2
melting point: 203 to 204 °C

COc1cccc2c1[n+](C/C=C/c1ccc([N+](=O)[O-])cc1)cn2Cc1ccc2ccccc2c1.[Br-] [CKP-42, (E)-4-Methoxy-1-(naphthalen-2-ylmethyl)-3-(3-(4-nitrophenyl)allyl)-1H-benzo[d]imidazol-3-ium Bromide]
activity on Spike RBD/ACE2 (19–615) interaction (in words) [1]: active
inhibition at 10 µM [1, 4]: 74%
melting point: 227 to 228 °C

COc1cccc2c1ncn2Cc1ccc2cccnc2c1 [CKP-44, 7-((4-Methoxy-1H-benzo[d]imidazol-1-yl)methyl)quinoline]
activity on Spike RBD/ACE2 (19–615) interaction (in words) [1]: did not exhibit any effect
melting point: 161 to 162 °C

c1ccc2cc(CCn3cnc4ccccc43)ccc2c1 [CKP-46, 1-(2-(Naphthalen-2-yl)ethyl)-1H-benzo[d]imidazole]
activity on Spike RBD/ACE2 (19–615) interaction (in words) [1]: activity was retained
inhibition at 1 µM [1, 4]: 20%

O=[N+]([O-])c1cccc2c1ncn2Cc1ccc2cccnc2c1 [CKP-48, 7-((4-Nitro-1H-benzo[d]imidazol-1-yl)methyl)quinoline]
activity on Spike RBD/ACE2 (19–615) interaction (in words) [1]: showed activity
inhibition at 50 µM [1, 4]: 36%

Nc1cccc2c1ncn2Cc1ccc2cccnc2c1 [CKP-49, 1-(Quinolin-7-ylmethyl)-1H-benzo[d]imidazol-4-amine]
effect on viral load in the cell culture supernatant (in words) (SARS-CoV-2 [2]): reduced the viral load
inhibition at 50 µM [1, 4]: 30%
effect on the cytopathic effect of SARS-CoV-2 (in words) (SARS-CoV-2 [3]): consistently reduced the cytopathic effect

O=C(c1ccc(-c2ccccc2)cc1)n1cnc2ccccc21 [compound 5260662, 1-(4-biphenylylcarbonyl)-1H-benzimidazole]
concentration-dependent suppression of Spike RBD/ACE2 (19–615) interaction [1]: suppressed Spike RBD/ACE2 (19–615) interaction in a concentration-dependent manner
effect on Spike RBD/ACE2 (19–615) interaction [1]: suppressed the interaction

Cc1ccc[n+](CC(=O)c2ccc3c(c2)Cc2ccccc2-3)c1C.[Br-] [compound 5315079, 1-[2-(9H-fluoren-2-yl)-2-oxoethyl]-2,3-dimethylpyridinium bromide]
concentration-dependent suppression of Spike RBD/ACE2 (19–615) interaction [1]: suppressed Spike RBD/ACE2 (19–615) interaction in a concentration-dependent manner
effect on Spike RBD/ACE2 (19–615) interaction [1]: suppressed the interaction

COc1ccc(-c2ccccc2)cc1NCc1ccc2c(c1)OCO2 [compound 5465521, (1,3-benzodioxol-5-ylmethyl)(4-methoxy-3-biphenylyl)amine]
concentration-dependent suppression of Spike RBD/ACE2 (19–615) interaction [1]: suppressed Spike RBD/ACE2 (19–615) interaction in a concentration-dependent manner
effect on Spike RBD/ACE2 (19–615) interaction [1]: suppressed the interaction

O=C(O)c1ccc2c(c1)C(=O)N(c1ccc(-c3nnc(-c4ccccc4)o3)cc1)C2=O [compound 5733393, 1,3-dioxo-2-[4-(5-phenyl-1,3,4-oxadiazol-2-yl)phenyl]-5-isoindolinecarboxylic acid]
effect on Spike RBD/ACE2 (19–615) interaction [1]: suppressed the interaction

O=C(C=Cc1ccc(NC(=O)c2ccccc2-c2ccccc2C(=O)O)cc1)c1ccccc1 [compound 5755483, 2'-({[4-(3-oxo-3-phenyl-1-propen-1-yl)phenyl]amino}carbonyl)-2-biphenylcarboxylic acid]
effect on Spike RBD/ACE2 (19–615) interaction [1]: suppressed the interaction

O=C1CC(c2ccc3ccccc3c2)c2ccc3ccccc3c2N1 (stereo not shown) [compound 5979742, 4-(2-naphthyl)-3,4-dihydrobenzo[h]quinolin-2(1H)-one]
effect on Spike RBD/ACE2 (19–615) interaction [1]: suppressed the interaction

O=C(c1ccc(NC(=O)C(c2ccccc2)c2ccccc2)cc1)c1ccc(C(=O)O)c(C(=O)O)c1 [compound 6048589, 4-{4-[(diphenylacetyl)amino]benzoyl}phthalic acid]
effect on Spike RBD/ACE2 (19–615) interaction [1]: suppressed the interaction

O=C(O)c1ccccc1C(=O)Nc1ccc(Oc2ccc3ccccc3c2)cc1 [compound 6052953, 2-({[4-(2-naphthyloxy)phenyl]amino}carbonyl)benzoic acid]
concentration-dependent suppression of Spike RBD/ACE2 (19–615) interaction [1]: suppressed Spike RBD/ACE2 (19–615) interaction in a concentration-dependent manner
effect on Spike RBD/ACE2 (19–615) interaction [1]: suppressed the interaction

O=c1c(Oc2ccc(-c3ccccc3)cc2)coc2cc(O)ccc12 [compound 6659989, 3-(4-biphenylyloxy)-7-hydroxy-4H-chromen-4-one]
concentration-dependent suppression of Spike RBD/ACE2 (19–615) interaction [1]: suppressed Spike RBD/ACE2 (19–615) interaction in a concentration-dependent manner
effect on Spike RBD/ACE2 (19–615) interaction [1]: suppressed the interaction
IC50 (SARS-CoV-2 pseudovirus): 3.2 ± 0.2 µM

Nc1nc(-c2ccccc2)c(-c2ccc(-c3ccccc3)cc2)s1 [compound 6954709, 5-(4-biphenylyl)-4-phenyl-1,3-thiazol-2-amine]
effect on Spike RBD/ACE2 (19–615) interaction [1]: suppressed the interaction

COS(C)(=O)=O [methyl methanesulfonate, reference compound]
mean revertants (E. coli WP2 uvrA strain; 2.5 μL/plate, –S9): >300
